Legend:
[1] = molecular target: T1, catalytic domain (JH1, amino acids 826-1132) of human JAK2 (Homo sapiens, UniProt O60674); assay: JAK2 LanthaScreen JH1 Binding Assay; conditions: JAK2 JH1 1.5 nM, 50 nM tracer, 2 hours at 25° C.; read-out: JH1 BIND
T1 construct: catalytic domain (JH1, amino acids 826-1132) of human JAK2; FLAG (N); biotin (biotinylated); purchased Carna Biosciences 08-445-20N; host or cells: baculovirus expression system
Method in brief: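 FLAG-tagged, biotinylated JAK2 JH1 (aa 826-1132, baculovirus-expressed; 1.5 nM) incubated 2 h at 25° C with compounds, 50 nM fluorescent tracer and 0.5 nM Streptavidin-Tb in Tris pH 7.5 buffer with MgCl2, Brij-35, BSA, EGTA, glycerol, DTT. Nonspecific binding defined with 2 mM ATP; TR-FRET IC50 from four-parameter fit.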

[2] = molecular target: T2, pseudo-kinase domain (JH2, amino-acids 536-812) of human Wild Type JAK2 (Homo sapiens, UniProt O60674, F794H/W659A/W777A); assay: JAK2 LanthaScreen JH2-WT Binding Assay; conditions: JAK2 JH2-WT 0.145 nM, 50 nM tracer, 1 hour at 25° C.; read-out: JH2 BIND WT
T2 construct: pseudo-kinase domain (JH2, amino-acids 536-812 with 3 surface mutations W659A, W777A, F794H); His (C); purchased BPS Bioscience 79463; host or cells: baculovirus expression system
Method in brief: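 Binding was measured by TR-FRET between streptavidin-Tb (0.25 nM) on biotinylated JH2 (0.145 nM) and 50 nM fluorescent tracer, with compound dose series, 1 h at 25° C; IC50 fitted.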

[3] = molecular target: T3, pseudo-kinase domain (JH2, amino-acids 536-812) of human V617F mutant JAK2 (Homo sapiens, UniProt O60674, F794H/V617F/W659A/W777A); assay: JAK2 LanthaScreen JH2-V617F Binding Assay; conditions: JAK2 JH2-V617F 0.26 nM, 50 nM tracer, 1 hour at 25° C.; read-out: JH2 BIND V617F
T3 construct: pseudo-kinase domain (JH2, amino-acids 536-812 with 3 surface mutations W659A, W777A, F794H); His (C); purchased BPS Bioscience 79498; host or cells: baculovirus expression system
Method in brief: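 Competition of compounds with a fluorescent tracer (50 nM) for the biotinylated domain (0.26 nM), detected via streptavidin-Tb (0.25 nM) after 1 h at 25° C in pH 7.5 Tris buffer containing glycerol, BSA and Brij-35. ATP at 2 mM gave background. IC50 by four-parameter fit.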

[4] = molecular target: catalytic domain (JH1, amino acids 808-1132) of human JAK2 (Homo sapiens, UniProt O60674); assay: JAK2 HTRF Enzyme Activity Assay; type: biochemical; conditions: ATP 30 µM, 60 minutes at 25° C.; read-out: V617F ENZ 30 UM
catalytic domain (JH1, amino acids 808-1132) of human JAK2, sequence (O60674 808-1132 limits assumed): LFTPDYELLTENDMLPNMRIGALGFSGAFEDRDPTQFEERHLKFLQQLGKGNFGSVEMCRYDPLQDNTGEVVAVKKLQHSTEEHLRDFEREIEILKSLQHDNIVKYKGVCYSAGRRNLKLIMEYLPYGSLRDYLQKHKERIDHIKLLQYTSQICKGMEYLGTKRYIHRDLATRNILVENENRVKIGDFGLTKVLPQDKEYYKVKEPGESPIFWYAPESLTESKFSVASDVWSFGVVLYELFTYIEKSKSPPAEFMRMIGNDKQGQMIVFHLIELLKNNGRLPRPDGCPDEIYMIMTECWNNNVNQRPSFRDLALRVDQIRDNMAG

T3 sequence (O60674 536-812 V617F/W659A/W777A/F794H): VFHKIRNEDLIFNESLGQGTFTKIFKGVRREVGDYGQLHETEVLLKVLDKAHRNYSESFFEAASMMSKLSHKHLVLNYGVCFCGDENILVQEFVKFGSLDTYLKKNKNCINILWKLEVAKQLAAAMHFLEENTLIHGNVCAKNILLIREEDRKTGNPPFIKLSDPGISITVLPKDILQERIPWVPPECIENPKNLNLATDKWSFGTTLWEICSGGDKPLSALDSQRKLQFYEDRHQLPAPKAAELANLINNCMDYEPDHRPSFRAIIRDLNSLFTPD
T1 sequence (O60674 826-1132): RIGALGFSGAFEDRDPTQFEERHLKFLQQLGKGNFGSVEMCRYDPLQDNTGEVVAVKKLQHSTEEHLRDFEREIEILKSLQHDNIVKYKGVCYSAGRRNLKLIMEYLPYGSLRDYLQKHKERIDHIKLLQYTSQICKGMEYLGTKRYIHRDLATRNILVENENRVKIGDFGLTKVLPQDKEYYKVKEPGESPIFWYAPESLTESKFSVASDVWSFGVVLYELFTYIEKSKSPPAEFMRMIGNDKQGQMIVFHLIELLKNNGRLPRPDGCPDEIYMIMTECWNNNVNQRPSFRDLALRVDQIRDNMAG
T2 sequence (O60674 536-812 W659A/W777A/F794H): as the sequence (O60674 536-812 V617F/W659A/W777A/F794H) above, with F82V counted along it

SMILES	IC50 [1] [nM]	IC50 [2] [nM]	IC50 [3] [nM]	IC50 [4] [nM]
[2H]C([2H])([2H])n1c(=O)n([C@@H]2CC[C@@H](NC(=O)OC)C2)c2cc(Nc3cc(C(C)(C)O)cc(-c4cnc(C(F)(F)F)s4)n3)ncc21 [Example 95, Methyl ((1R,3R)-3-(6-((4-(2-hydroxypropan-2-yl)-6-(2-(trifluoromethyl)thiazol-5-yl)pyridin-2-yl)amino)-3-(methyl-d3)-2-oxo-2,3-dihydro-1H-imidazo[4,5-c]pyridin-1-yl)cyclopentyl)carbamate]	> 1000	≤ 10	≤ 10	> 1000
[2H]C([2H])([2H])n1c(=O)n([C@@H]2CC[C@@H](NC(=O)OC)C2)c2cc(Nc3cc(C(=O)N4CCOCC4)c4cccc(C(C)(C)C#N)c4n3)ncc21 [Example 96, Methyl ((1R,3R)-3-(6-((8-(2-cyanopropan-2-yl)-4-(morpholine-4-carbonyl)quinolin-2-yl)amino)-3-(methyl-d3)-2-oxo-2,3-dihydro-1H-imidazo[4,5-c]pyridin-1-yl)cyclopentyl)carbamate]	> 1000	≤ 10	≤ 10	> 1000
[2H]C([2H])([2H])n1c(=O)n([C@@H]2CC[C@@H](NC(=O)OC)C2)c2cc(Nc3ccc(OC)c(-c4ncc(C(F)(F)F)s4)n3)ncc21 [Example 98, Methyl ((1R,3R)-3-(6-((5-methoxy-6-(5-(trifluoromethyl)thiazol-2-yl)pyridin-2-yl)amino)-3-(methyl-d3)-2-oxo-2,3-dihydro-1H-imidazo[4,5-c]pyridin-1-yl)cyclopentyl)carbamate]	> 1000	≤ 10	≤ 10	> 1000
[2H]C([2H])([2H])n1c(=O)n([C@@H]2CC[C@@H](NC(=O)OC)C2)c2cc(Nc3cc(C)cc(-c4ncc(C(C)(C)O)s4)n3)ncc21 [Example 99, Methyl ((1R,3R)-3-(6-((6-(5-(2-hydroxypropan-2-yl)thiazol-2-yl)-4-methylpyridin-2-yl)amino)-3-(methyl-d3)-2-oxo-2,3-dihydro-1H-imidazo[4,5-c]pyridin-1-yl)cyclopentyl)carbamate]	> 1000	≤ 10	≤ 10	> 1000
[2H]C([2H])([2H])n1c(=O)n([C@@H]2CC[C@@H](NC(=O)OC)C2)c2cc(Nc3cc(C(C)(C)O)cc(-c4ncc(C(F)(F)F)s4)n3)ncc21 [Example 100, Methyl ((1R,3R)-3-(6-((4-(2-hydroxypropan-2-yl)-6-(5-(trifluoromethyl)thiazol-2-yl)pyridin-2-yl)amino)-3-(methyl-d3)-2-oxo-2,3-dihydro-1H-imidazo[4,5-c]pyridin-1-yl)cyclopentyl)carbamate]	> 1000	≤ 10	≤ 10	> 1000
[2H]C([2H])([2H])n1c(=O)n([C@@H]2CC[C@@H](NC(=O)OC)C2)c2cc(Nc3cc(CN4CC(C(F)F)C4)cc(-c4ncc(C(F)(F)F)s4)n3)ncc21 [Example 101, Methyl ((1R,3R)-3-(6-((4-((3-(difluoromethyl)azetidin-1-yl)methyl)-6-(5-(trifluoromethyl)thiazol-2-yl)pyridin-2-yl)amino)-3-(methyl-d3)-2-oxo-2,3-dihydro-1H-imidazo[4,5-c]pyridin-1-yl)cyclopentyl)carbamate]	> 1000	≤ 10	≤ 10	> 1000
[2H]C([2H])([2H])n1c(=O)n([C@@H]2CC[C@@H](NC(=O)OC)C2)c2cc(Nc3cc(C(=O)N4CCOCC4)c(-c4cnn(C)c4)c(OC4CCC4)n3)ncc21 [Example 102, Methyl ((1R,3R)-3-(6-((6-cyclobutoxy-5-(1-methyl-1H-pyrazol-4-yl)-4-(morpholine-4-carbonyl)pyridin-2-yl)amino)-3-(methyl-d3)-2-oxo-2,3-dihydro-1H-imidazo[4,5-c]pyridin-1-yl)cyclopentyl)carbamate]	> 1000	≤ 10	≤ 10	> 1000
[2H]C([2H])([2H])n1c(=O)n([C@@H]2CC[C@@H](NC(=O)OC)C2)c2cc(Nc3cc(CO)nc(-c4ccc(C(F)F)s4)n3)ncc21 [Example 103, Methyl ((1R,3R)-3-(6-((2-(5-(difluoromethyl)thiophen-2-yl)-6-(hydroxymethyl)pyrimidin-4-yl)amino)-3-(methyl-d3)-2-oxo-2,3-dihydro-1H-imidazo[4,5-c]pyridin-1-yl)cyclopentyl)carbamate]	> 1000	≤ 10	≤ 10	> 1000
[2H]C([2H])([2H])n1c(=O)n([C@@H]2CC[C@@H](NC(=O)OC)C2)c2cc(Nc3cc(C(=O)N4CCOCC4)cc(-c4ccc(C(F)F)s4)n3)ncc21 [Example 104, Methyl ((1R,3R)-3-(6-((6-(5-(difluoromethyl)thiophen-2-yl)-4-(morpholine-4-carbonyl)pyridin-2-yl)amino)-3-(methyl-d3)-2-oxo-2,3-dihydro-1H-imidazo[4,5-c]pyridin-1-yl)cyclopentyl)carbamate]	> 1000	≤ 10	≤ 10	500 to 1000
[2H]C([2H])([2H])n1c(=O)n([C@@H]2CC[C@@H](NC(=O)OC)C2)c2cc(Nc3cc(C4CCN(C(C)=O)CC4)cc(-c4ncc(C(F)(F)F)s4)n3)ncc21 [Example 105, Methyl ((1R,3R)-3-(6-((4-(1-acetylpiperidin-4-yl)-6-(5-(trifluoromethyl)thiazol-2-yl)pyridin-2-yl)amino)-3-(methyl-d3)-2-oxo-2,3-dihydro-1H-imidazo[4,5-c]pyridin-1-yl)cyclopentyl)carbamate]	> 1000	≤ 10	≤ 10	> 1000
[2H]C([2H])([2H])n1c(=O)n([C@H]2C[C@H](C(C)(C)O)C2)c2cc(Nc3cc(-c4cnccc4C(F)(F)F)c4nc(C)c(-c5cnn(C(F)F)c5)n4n3)ncc21 [Example 106, 6-((3-(1-(Difluoromethyl)-1H-pyrazol-4-yl)-2-methyl-8-(4-(trifluoromethyl)pyridin-3-yl)imidazo[1,2-b]pyridazin-6-yl)amino)-1-((1r,3r)-3-(2-hydroxypropan-2-yl)cyclobutyl)-3-(methyl-d3)-1,3-dihydro-2H-imidazo[4,5-c]pyridin-2-one]	> 1000	≤ 10	≤ 10	> 1000
[2H]C([2H])([2H])n1c(=O)n([C@@H]2CC[C@@H](NC(=O)OC)C2)c2cc(Nc3cc(-c4cnn(C)c4)cc(-c4ncc(C(C)(C)O)s4)n3)ncc21 [Example 107, Methyl ((1R,3R)-3-(6-((6-(5-(2-hydroxypropan-2-yl)thiazol-2-yl)-4-(1-methyl-1H-pyrazol-4-yl)pyridin-2-yl)amino)-3-(methyl-d3)-2-oxo-2,3-dihydro-1H-imidazo[4,5-c]pyridin-1-yl)cyclopentyl)carbamate]	> 1000	≤ 10	≤ 10	> 1000
[2H]C([2H])([2H])n1c(=O)n([C@@H]2CC[C@@H](NC(=O)OC)C2)c2cc(Nc3cccc(-n4cc(C(F)(F)F)cn4)n3)ncc21 [Example 108, Methyl ((1R,3R)-3-(3-(methyl-d3)-2-oxo-6-((6-(4-(trifluoromethyl)-1H-pyrazol-1-yl)pyridin-2-yl)amino)-2,3-dihydro-1H-imidazo[4,5-c]pyridin-1-yl)cyclopentyl)carbamate]	> 1000	≤ 10	≤ 10	> 1000
[2H]C([2H])([2H])n1c(=O)n([C@@H]2CC[C@@H](NC(=O)OC)C2)c2cc(Nc3ccc4c(n3)n(-c3cnn(C(F)F)c3)c(=O)n4CC3(C#N)CC3)ncc21 [Example 114, Methyl ((1R,3R)-3-(6-((1-((1-cyanocyclopropyl)methyl)-3-(1-(difluoromethyl)-1H-pyrazol-4-yl)-2-oxo-2,3-dihydro-1H-imidazo[4,5-b]pyridin-5-yl)amino)-3-(methyl-d3)-2-oxo-2,3-dihydro-1H-imidazo[4,5-c]pyridin-1-yl)cyclopentyl)carbamate]	> 1000	≤ 10	≤ 10	> 1000

— US20240317744A1, “Bicyclic Ureas As Kinase Inhibitors” (Incyte Corporation, priority 2023, published 2024)
